Experimental data taken from US20210077592A1, “COMPOSITION TO PREVENT INTESTINAL DAMAGE” (FUSION FARM S.R.L. SEMPLIFICATA, priority 2017, published 2021).

What was measured:
Assay type in all cases: cell-based
Caco-2 cells [1] = experiment: Electron Microscopy (SEM) of microvilli of Caco-2 cells after damage induction; details: pretreatment 60 h without glutamine, then 60 mM ethanol 4 h, 750x-10000x
Experimental: The same cells without damage induction (NC) and with damage induction (PC), as indicated above, were finally evaluated by Electron Microscopy (SEM) at different magnifications.
(§1) According to the experimental protocol, to evaluate the efficacy of the composition of the invention in damage prevention, sodium butyrate (2 mM concentration) and lactoferrin (400 μg/ml concentration), either alone or in combination, were applied on Caco-2 cells during stress induced by absence of glutamine, increasing the time of said deprivation, with respect to the conditions tested during the development of the model, and therefore of stress induction, to 60 hours, to make more evident differences in cells behavior in the different treatment situations. At the end of 60 hours, the products were removed, and damage was induced for 4 h with 60 mM ethanol. The parameters were evaluated at the end.
The same cells were finally evaluated also by Electron Microscopy SEM, at various magnifications.

[2] = test system: Occludin and Zonula Occludens in Caco-2 cells; experiment: Fluorescence immunolabeling of Occludin and Zonula Occludens in Caco-2 cells after damage induction; details: pretreatment 60 h without glutamine, then 60 mM ethanol 4 h
Experimental: As it can be seen by FIG. 1, the damage induced an increase in permeability. The same cells without damage induction (NC) and with damage induction (PC), as indicated above, were further evaluated by fluorescence immunolabeling of Occludina and Zonula Occludens (proteins present in the intestinal membrane intracellular junctions).
as §1
To confirm the observed behavior, an evaluation using fluorescence immunolabeling of Occludin and Zonula Occludens was also performed.

Caco-2 cells [3] = experiment: Lucifer Yellow (LY) assay of paracellular permeability in Caco-2 intestinal damage model
Experimental: A protocol was developed based on Caco-2 cell inserts model (CACOREADY™ cells, lot no. 24 676 101716 and no. 24 680 111416, Readycell manufacturer) consisting in two steps:
1. Induction of epithelial damage (40 h incubation in glutamine free medium followed by stress induced by 60 mM ethanol for 4 h)
2. Evaluation of the single products first, and then applied in combination during stress induced by the absence of glutamine (60 h), and with subsequent stress induced by ethanol, to evaluate the efficacy in preventing damage. […]
Cells without damage induction (NC=without damage) and with damage induction (PC) were evaluated with the Lucifer Yellow (LY) assay, which verifies the integrity of the cellular junctions in presence of the test substance. […]
as §1, with “At the end of 60 hours, the products were removed, and damage was induced for 4 h with 60 mM ethanol.” left out, “end. […]” for “end.”

SMILES: CCCC(=O)[O-].[Na+] [sodium butyrate, reference compound]
- effect on microvilli / villous atrophy by SEM, result in words (Caco-2 cells [1]): did not have any effect in combating the partial villous atrophy
- fluorescence intensity / expression of tight junction proteins (Occludin, Zonula Occludens), result in words [2]: lower expression of the tight junctions' proteins
- increase in LY flux (permeability) (Caco-2 cells [3]; 2 mM sodium butyrate alone during 60 h glutamine deprivation, then 60 mM ethanol 4 h): over 51%
- permeability (LY), result in words (Caco-2 cells [3]; treatment at the same time as damage induction): significant increase in permeability
